Laboratory results reported in ChEMBL document CHEMBL2413072, “Synthesis and in vitro anticancer studies of novel C-2 arylidene congeners of lantadenes” (2013).

Columns and labels:
Type in all cases: functional
MOLT-4 = test: Growth inhibition of human MOLT4 cells by sulforhodamine B assay
HT-29 = test: Growth inhibition of human HT-29 cells assessed as cell growth at 10^-8 M by sulforhodamine B assay; conditions: read-out: Activity
CCRF-CEM = test: Growth inhibition of human CCRF-CEM cells assessed as cell growth at 10^-8 M by sulforhodamine B assay; conditions: read-out: Activity
T47D = test: Growth inhibition of human T47D cells by sulforhodamine B assay
MCF7 [1] = test: Growth inhibition of human MCF7 cells by sulforhodamine B assay
UO-31 [2] = test: Growth inhibition of human UO31 cells by sulforhodamine B assay
OVCAR-4 [3] = test: Growth inhibition of human OVCAR4 cells by sulforhodamine B assay
MDA-MB-435 = test: Growth inhibition of human MDA-MB-435 cells by sulforhodamine B assay
SF-295 = test: Growth inhibition of human SF295 cells by sulforhodamine B assay
BT-549 = test: Growth inhibition of human BT549 cells assessed as cell growth at 10^-4 M by sulforhodamine B assay; conditions: read-out: Activity
MCF7 [4] = test: Growth inhibition of human MCF7 cells assessed as cell growth at 10^-4 M by sulforhodamine B assay; conditions: read-out: Activity
786-0 = test: Growth inhibition of human 786-0 cells assessed as cell growth at 10^-4 M by sulforhodamine B assay; conditions: read-out: Activity
[5] = Growth inhibition of human NCI-ADR-RES cells assessed as cell growth at 10^-4 M by sulforhodamine B assay; conditions: read-out: Activity
OVCAR-4 [6] = test: Growth inhibition of human OVCAR4 cells assessed as cell growth at 10^-4 M by sulforhodamine B assay; conditions: read-out: Activity
SK-MEL-5 [7] = test: Growth inhibition of human SK-MEL-5 cells assessed as cell growth at 10^-4 M by sulforhodamine B assay; conditions: read-out: Activity
HCT-15 = test: Growth inhibition of human HCT15 cells assessed as cell growth at 10^-4 M by sulforhodamine B assay; conditions: read-out: Activity
COLO 205 = test: Growth inhibition of human COLO205 cells assessed as cell growth at 10^-4 M by sulforhodamine B assay; conditions: read-out: Activity
NCI-H322M = test: Growth inhibition of human NCI-H322M cells assessed as cell growth at 10^-4 M by sulforhodamine B assay; conditions: read-out: Activity
HOP-92 [8] = test: Growth inhibition of human HOP92 cells assessed as cell growth at 10^-4 M by sulforhodamine B assay; conditions: read-out: Activity
MDA-MB-468 = test: Growth inhibition of human MDA-MB-468 cells assessed as cell growth at 10^-6 M by sulforhodamine B assay; conditions: read-out: Activity
DU-145 = test: Growth inhibition of human DU145 cells assessed as cell growth at 10^-6 M by sulforhodamine B assay; conditions: read-out: Activity
[9] = Growth inhibition of human NCI-ADR-RES cells assessed as cell growth at 10^-6 M by sulforhodamine B assay; conditions: read-out: Activity
SK-MEL-5 [10] = test: Growth inhibition of human SK-MEL-5 cells assessed as cell growth at 10^-6 M by sulforhodamine B assay; conditions: read-out: Activity
[11] = Growth inhibition of human HCC2998 cells assessed as cell growth at 10^-6 M by sulforhodamine B assay; conditions: HCC 2998, read-out: Activity
HOP-92 [12] = test: Growth inhibition of human HOP92 cells assessed as cell growth at 10^-6 M by sulforhodamine B assay; conditions: read-out: Activity
A549 = test: Growth inhibition of human A549/ATCC cells assessed as cell growth at 10^-6 M by sulforhodamine B assay; conditions: read-out: Activity
HL-60(TB) = test: Growth inhibition of human HL-60(TB) cells assessed as cell growth at 10^-6 M by sulforhodamine B assay; conditions: read-out: Activity
MDA-MB-231 = test: Growth inhibition of human MDA-MB-231 cells assessed as cell growth at 10^-7 M by sulforhodamine B assay; conditions: read-out: Activity
MCF7 [13] = test: Growth inhibition of human MCF7 cells assessed as cell growth at 10^-7 M by sulforhodamine B assay; conditions: read-out: Activity
UO-31 [14] = test: Growth inhibition of human UO31 cells assessed as cell growth at 10^-7 M by sulforhodamine B assay; conditions: read-out: Activity
SN12C = test: Growth inhibition of human SN12C cells assessed as cell growth at 10^-7 M by sulforhodamine B assay; conditions: read-out: Activity
OVCAR-4 [15] = test: Growth inhibition of human OVCAR4 cells assessed as cell growth at 10^-7 M by sulforhodamine B assay; conditions: read-out: Activity
IGROV-1 = test: Growth inhibition of human IGROV1 cells assessed as cell growth at 10^-7 M by sulforhodamine B assay; conditions: read-out: Activity
SW-620 = test: Growth inhibition of human SW620 cells assessed as cell growth at 10^-7 M by sulforhodamine B assay; conditions: read-out: Activity
KM12 = test: Growth inhibition of human KM12 cells assessed as cell growth at 10^-7 M by sulforhodamine B assay; conditions: read-out: Activity
NCI-H226 = test: Growth inhibition of human NCI-H226 cells assessed as cell growth at 10^-7 M by sulforhodamine B assay; conditions: read-out: Activity
HOP-62 = test: Growth inhibition of human HOP62 cells assessed as cell growth at 10^-7 M by sulforhodamine B assay; conditions: read-out: Activity
K562 = test: Growth inhibition of human K562 cells assessed as cell growth at 10^-7 M by sulforhodamine B assay; conditions: read-out: Activity
ACHN = test: Growth inhibition of human ACHN cells assessed as cell growth at 10^-8 M by sulforhodamine B assay; conditions: read-out: Activity
CAKI-1 = test: Growth inhibition of human CAKI-1 cells assessed as cell growth at 10^-8 M by sulforhodamine B assay; conditions: read-out: Activity
[16] = read-out: LC50 (the source's name)
[17] = read-out: pLC50 (the source's name) (converted)

For C/C=C(/C)C(=O)O[C@@H]1CC(C)(C)C[C@H]2C3=CC[C@@H]4[C@@]5(C)CC[C@H](O)C(C)(C)[C@@H]5CC[C@@]4(C)[C@]3(C)CC[C@@]12C(=O)O [Reduced Lantadene A], the GI50 (MOLT-4; read-out: GI50) was 2.05 µM, the CC50 (MOLT-4; [16]) was greater than 100 µM and the TGI (MOLT-4; read-out: TGI) was 5.14 µM. It also gave a GI50 (MOLT-4; read-out: pGI50 (converted)) of 2.04 µM, a CC50 (MOLT-4; [17]) greater than 100 µM and a TGI (MOLT-4; read-out: pTGI (converted)) of 5.13 µM. The growth at 0.01 µM (HT-29) was 104%, the growth at 0.01 µM (CCRF-CEM) was 98% and the GI50 (T47D; read-out: GI50) was 11.8 µM. It also gave a CC50 (T47D; [16]) greater than 100 µM, a TGI (T47D; read-out: TGI) of 41.1 µM and a GI50 (T47D; read-out: pGI50 (converted)) of 11.7 µM. The CC50 (T47D; [17]) was greater than 100 µM, the TGI (T47D; read-out: pTGI (converted)) was 40.7 µM and the GI50 (MCF7 [1]; read-out: GI50) was 3.09 µM. For the same compound, the CC50 (MCF7 [1]; [16]) was greater than 100 µM, the TGI (MCF7 [1]; read-out: TGI) was 16.5 µM and the GI50 (MCF7 [1]; read-out: pGI50 (converted)) was 3.09 µM. For the same compound, the CC50 (MCF7 [1]; [17]) was greater than 100 µM, the TGI (MCF7 [1]; read-out: pTGI (converted)) was 16.6 µM and the GI50 (UO-31 [2]; read-out: GI50) was 1.64 µM. It also gave a CC50 (UO-31 [2]; [16]) of 5.91 µM, a TGI (UO-31 [2]; read-out: TGI) of 3.12 µM and a GI50 (UO-31 [2]; read-out: pGI50 (converted)) of 1.66 µM. The CC50 (UO-31 [2]; [17]) was 5.89 µM, the TGI (UO-31 [2]; read-out: pTGI (converted)) was 3.09 µM and the GI50 (OVCAR-4 [3]; read-out: GI50) was 1.77 µM. It also gave a TGI (OVCAR-4 [3]; read-out: TGI) of 3.74 µM, a GI50 (OVCAR-4 [3]; read-out: pGI50 (converted)) of 1.78 µM and a TGI (OVCAR-4 [3]; read-out: pTGI (converted)) of 3.72 µM. For the same compound, the GI50 (MDA-MB-435; read-out: GI50) was 2.21 µM, the CC50 (MDA-MB-435; [16]) was greater than 100 µM and the TGI (MDA-MB-435; read-out: TGI) was 5.9 µM. It also gave a GI50 (MDA-MB-435; read-out: pGI50 (converted)) of 2.19 µM, a CC50 (MDA-MB-435; [17]) greater than 100 µM and a TGI (MDA-MB-435; read-out: pTGI (converted)) of 5.89 µM. For the same compound, the GI50 (SF-295; read-out: GI50) was 1.62 µM, the CC50 (SF-295; [16]) was 7.74 µM and the TGI (SF-295; read-out: TGI) was 3.54 µM. The GI50 (SF-295; read-out: pGI50 (converted)) was 1.62 µM, the CC50 (SF-295; [17]) was 7.76 µM and the TGI (SF-295; read-out: pTGI (converted)) was 3.55 µM. The growth at 100 µM (BT-549) was -90%, the growth at 100 µM (MCF7 [4]) was -39% and the growth at 100 µM (786-0) was -55%. It also gave a growth at 100 µM [5] of -30%, a growth at 100 µM (OVCAR-4 [6]) of -21% and a growth at 100 µM (SK-MEL-5 [7]) of -63%. It also gave a growth at 100 µM (HCT-15) of -64%, a growth at 100 µM (COLO 205) of 3% and a growth at 100 µM (NCI-H322M) of -71%. For the same compound, the growth at 100 µM (HOP-92 [8]) was -73%, the growth at 1 µM (MDA-MB-468) was 84% and the growth at 1 µM (DU-145) was 109%. For the same compound, the growth at 1 µM [9] was 96%, the growth at 1 µM (SK-MEL-5 [10]) was 83% and the growth at 1 µM [11] was 101%. It also gave a growth at 1 µM (HOP-92 [12]) of 73%, a growth at 1 µM (A549) of 61% and a growth at 1 µM (HL-60(TB)) of 99%. For the same compound, the growth at 0.1 µM (MDA-MB-231) was 95%, the growth at 0.1 µM (MCF7 [13]) was 96% and the growth at 0.1 µM (UO-31 [14]) was 96%. It also gave a growth at 0.1 µM (SN12C) of 92%, a growth at 0.1 µM (OVCAR-4 [15]) of 99% and a growth at 0.1 µM (IGROV-1) of 111%. It also gave a growth at 0.1 µM (SW-620) of 95%, a growth at 0.1 µM (KM12) of 103% and a growth at 0.1 µM (NCI-H226) of 94%. For the same compound, the growth at 0.1 µM (HOP-62) was 95%, the growth at 0.1 µM (K562) was 105% and the growth at 0.01 µM (ACHN) was 105%. The growth at 0.01 µM (CAKI-1) was 96%.
